Like-named read-outs stand apart in the source and are kept apart here.
Legend:
[1] = Octanol/water partition coefficient of radiolabeled gallium complexes; assay type: physicochemical; conditions: 1-octanol / isotonic Tris buffer pH 7.0
Experimental: Octanol/water partition coefficients were measured by vortex mixing 1 mL of 1-octanol and 1 mL of isotonic Tris buffer (pH 7.0) with a 1-5 μL sample of the radiolabeled gallium complex. Following centrifugation at >1200 g for 5 minutes, the octanol and aqueous phases were sampled and counted in an automatic well counter.

[2] = rat, i.v.; for Heart/Blood / Heart/Liver / Heart/Lungs: ratio
Experimental: The gallium-67 complexes are prepared by ligand exchange from gallium-67 chloride, employing the tris(acetylacetonato)gallium(III) complex as an intermediate. The Ga-67 acetylacetonate in ethanol is reacted with the chelating ligand or ligand precursor at elevated temperature to form rapidly the desired gallium radiopharmaceutical. […] The biodistribution of several radiopharmaceuticals was determined in rats following intravenous injection using techniques previously described (M. A. Green, Nuclear Medicine and Biology 14:59-61, 1987; E. John and M. A. Green, J. Medicinal Chemistry, 33:1764-1770, 1990).
Under ether anesthesia, 1 to 3 μCi (0.1-0.2 mL) of no-carrier-added Ga-67 compound was administered by bolus injection into the femoral vein of male Sprague-Dawley rats. The ether anesthetized rats were sacrificed by decapitation at given time intervals post-injection, organs of interest were removed, weighed, and the gallium-67 activity counted. The biodistribution was calculated as a percentage of the injected dose per gram of tissue and percentage of injected dose per organ for each sample.

Question: What does the source list for “^67 GaL^+ L = [(4-deaSal)2 DM-BAPEN, ^67 GaL^+ L = [bis(diethylaminosalicylaldimino)-N,N'-bis(2,2'-dimethyl-3-aminopropyl)ethylenediamine]]”?
Answer: log P [1]: 2.84; % Injected Dose per Gram Tissue, Blood ([2]; 1 min): 1.91 ± 0.22 % Injected Dose per Gram Tissu; % Injected Dose per Gram Tissue, Brain ([2]; 1 min): 0.05 ± 0.01 % Injected Dose per Gram Tissu; % Injected Dose per Gram Tissue, Heart ([2]; 1 min): 0.85 ± 0.09 % Injected Dose per Gram Tissu; % Injected Dose per Gram Tissue, Kidney (one) ([2]; 1 min): 4.85 ± 0.75 % Injected Dose per Gram Tissu; % Injected Dose per Gram Tissue, Liver ([2]; 1 min): 4.91 ± 0.36 % Injected Dose per Gram Tissu; % Injected Dose per Gram Tissue, Lungs ([2]; 1 min): 4.23 ± 0.68 % Injected Dose per Gram Tissu; % Injected Dose per Gram Tissue, Spleen ([2]; 1 min): 1.61 ± 0.44 % Injected Dose per Gram Tissu; % Injected Dose per Organ, Blood ([2]; 1 min): 30.59 ± 3.45 % Injected Dose per Organ; % Injected Dose per Organ, Brain ([2]; 1 min): 0.08 ± 0.02 % Injected Dose per Organ; % Injected Dose per Organ, Heart ([2]; 1 min): 0.66 ± 0.06 % Injected Dose per Organ; % Injected Dose per Organ, Kidney (one) ([2]; 1 min): 4.25 ± 0.52 % Injected Dose per Organ; % Injected Dose per Organ, Liver ([2]; 1 min): 47.04 ± 6.53 % Injected Dose per Organ; % Injected Dose per Organ, Lungs ([2]; 1 min): 5.30 ± 0.23 % Injected Dose per Organ; % Injected Dose per Organ, Spleen ([2]; 1 min): 1.12 ± 0.34 % Injected Dose per Organ; % injected dose in heart, 1 min ([2]; 1 min, preliminary studies): 0.66 ± 0.06 % injected dose; % Injected Dose per Gram Tissue, Blood ([2]; 15 min): 0.30 ± 0.04 % Injected Dose per Gram Tissu; % Injected Dose per Gram Tissue, Brain ([2]; 15 min): 0.02 ± 0.01 % Injected Dose per Gram Tissu; % Injected Dose per Gram Tissue, Heart ([2]; 15 min): 0.57 ± 0.05 % Injected Dose per Gram Tissu; % Injected Dose per Gram Tissue, Kidney (one) ([2]; 15 min): 5.55 ± 0.50 % Injected Dose per Gram Tissu; % Injected Dose per Gram Tissue, Liver ([2]; 15 min): 4.78 ± 1.20 % Injected Dose per Gram Tissu; % Injected Dose per Gram Tissue, Lungs ([2]; 15 min): 2.06 ± 0.21 % Injected Dose per Gram Tissu; % Injected Dose per Gram Tissue, Spleen ([2]; 15 min): 3.15 ± 0.45 % Injected Dose per Gram Tissu; % Injected Dose per Organ, Blood ([2]; 15 min): 5.08 ± 0.71 % Injected Dose per Organ; % Injected Dose per Organ, Brain ([2]; 15 min): 0.00 ± 0.00 % Injected Dose per Organ; % Injected Dose per Organ, Heart ([2]; 15 min): 0.46 ± 0.04 % Injected Dose per Organ; % Injected Dose per Organ, Kidney (one) ([2]; 15 min): 4.79 ± 0.38 % Injected Dose per Organ; % Injected Dose per Organ, Liver ([2]; 15 min): 50.24 ± 11.08 % Injected Dose per Organ; % Injected Dose per Organ, Lungs ([2]; 15 min): 2.71 ± 0.22 % Injected Dose per Organ; % Injected Dose per Organ, Spleen ([2]; 15 min): 2.29 ± 0.42 % Injected Dose per Organ; % Injected Dose per Gram Tissue, Blood ([2]; 120 min): 0.06 ± 0.01 % Injected Dose per Gram Tissu; % Injected Dose per Gram Tissue, Brain ([2]; 120 min): 0.00 ± 0.00 % Injected Dose per Gram Tissu; % Injected Dose per Gram Tissue, Heart ([2]; 120 min): 0.47 ± 0.02 % Injected Dose per Gram Tissu; % Injected Dose per Gram Tissue, Kidney (one) ([2]; 120 min): 5.28 ± 0.32 % Injected Dose per Gram Tissu; % Injected Dose per Gram Tissue, Liver ([2]; 120 min): 0.96 ± 0.14 % Injected Dose per Gram Tissu; % Injected Dose per Gram Tissue, Lungs ([2]; 120 min): 1.02 ± 0.13 % Injected Dose per Gram Tissu; % Injected Dose per Gram Tissue, Spleen ([2]; 120 min): 2.89 ± 0.21 % Injected Dose per Gram Tissu; % Injected Dose per Organ, Blood ([2]; 120 min): 1.06 ± 0.20 % Injected Dose per Organ; % Injected Dose per Organ, Brain ([2]; 120 min): 0.02 ± 0.01 % Injected Dose per Organ; % Injected Dose per Organ, Heart ([2]; 120 min): 0.40 ± 0.04 % Injected Dose per Organ; % Injected Dose per Organ, Kidney (one) ([2]; 120 min): 5.17 ± 0.19 % Injected Dose per Organ; % Injected Dose per Organ, Liver ([2]; 120 min): 11.06 ± 2.46 % Injected Dose per Organ; % Injected Dose per Organ, Lungs ([2]; 120 min): 1.31 ± 0.07 % Injected Dose per Organ; % Injected Dose per Organ, Spleen ([2]; 120 min): 2.09 ± 0.18 % Injected Dose per Organ; % injected dose in heart, 2 h ([2]; 2 h, preliminary studies): 0.40 ± 0.04 % injected dose; Heart/Blood ([2]; 1 min): 0.45 ± 0.04; Heart/Liver ([2]; 1 min): 0.17 ± 0.03; Heart/Lungs ([2]; 1 min): 0.20 ± 0.02; Heart/Blood ([2]; 15 min): 1.94 ± 0.33; Heart/Liver ([2]; 15 min): 0.13 ± 0.04; Heart/Lungs ([2]; 15 min): 0.28 ± 0.04; Heart/Blood ([2]; 120 min): 8.06 ± 1.62; Heart/Liver ([2]; 120 min): 0.50 ± 0.07; Heart/Lungs ([2]; 120 min): 0.46 ± 0.07

— patent US5324502A, “Radiopharmaceuticals for imaging the heart” (priority 1992, dated 1994)
